According to patent US12458614B2, “Therapeutic agents for improved mobility and cognitive function and for treating neurodegenerative diseases and lysosomal storage disorders” (priority 2017, dated 2025):

Key:
[1] = test system: person with postural imbalance and gait disorder; assay: Case study Example 24; assay type: in vivo, human
Protocol: The patient was treated with Tanganil® 500 mg in 3 separate doses throughout the day—1 g upon waking, 1 g prior to lunch and 1 g prior to the evening meal for one week, followed by 2 g upon waking, 1.5 g prior to lunch and 1.5 g prior to the evening meal.

[2] = test system: Npc1−/− mice; assay: Motor function analysis (Open Field Activity Monitor); assay type: in vivo, mouse; details: nine weeks of age
Protocol: (§1) Separate groups of Npc1^−/− and Npc1^+/+ mice were left untreated, as controls. Motor function analysis was performed on mice at eight and nine weeks of age using an Open Field Activity Monitor according to manufacturer's instructions (Linton Instruments, Amlogger Software). Each mouse was placed in a plastic cage with bedding and analysed for five minutes. Rears were counted manually. Motor function parameters measured were: • 1. Centre Rearing: mice rearing on hind legs unsupported; • 2. Rearing: mice rearing on hind legs with and without the support of cage walls; • 3. Activity: regular movement of the animal including walks; • 4. Front to Back (FR) count: movement of the animal from front to back of the cage; • 5. Active Time: duration (s/min) of activeness regardless of movement; • 6. Mobile Time: duration (s/min) of mobility; • 7. Rearing Time: duration of any rearing. Results Coat Condition

[3] = test system: wild-type (Npc1+/+) mice; assay: as above; assay type: in vivo, mouse; details: nine weeks of age
Protocol: as §1

[4] = test system: patient with Lewy Body dementia; assay: Case study, Lewy Body dementia; assay type: in vivo, human; details: Lewy Body dementia patient
Protocol: The patient started taking acetyl-leucine (3 g/day for one week; 5 g/day thereafter) and was evaluated after four weeks. […] Medication was reduced to 3 g/day, and the patient was instructed to stop medication about two weeks later.

[5] = test system: person with postural imbalance and cognitive decline; assay: Case study Example 27; assay type: in vivo, human
Protocol: The patient was examined clinically by means of the following clinical assessments: maximal distance to walk; timed Up and Go test; Scale for the Assessment and Rating of Ataxia (SARA). The patient was also examined by means of posturography after 1 month of the therapy with Tanganil® 500 mg (2 g upon waking, 1.5 g prior to lunch and 1.5 g prior to the evening meal). Medication was taken 30 minutes prior to the meal, or at least 2 hours after the meal. During treatment with Tanganil® (2 g upon waking, 1.5 g prior to lunch and 1.5 g prior to the evening meal) for 1-month, the following assessments were made: […]

[6] = test system: Mucolipidosis Type II (MLII) patient fibroblasts; assay: Lysosomal volume via LysoTracker; assay type: cell-based, human; details: 1 mM, 6 days
[7] = test system: Niemann-Pick A (NPA) patient fibroblasts; assay: Lysosomal volume via LysoTracker; assay type: cell-based, human; details: 1 mM, 6 days
[8] = test system: Mucolipidosis Type IIIA (MLIIIA) patient fibroblasts; assay: Lysosomal volume via LysoTracker; assay type: cell-based, human; details: 1 mM, 6 days
[9] = test system: amyloid precursor protein C-terminal fragments (APP-CTFs); assay: APP-CTF levels relative to total APP in the cerebellum; assay type: in vivo, mouse; details: NPC1−/− mice, 0.1 g/kg body weight daily from 3 weeks, sacrificed at 8 weeks
Protocol: The Niemann-Pick Disease Type C (NPC) mouse model shares a number of pathological features with Alzheimer's disease (AD) as described herein. […] Mice were sacrificed at 8 weeks of age. Levels of amyloid precursor protein C-terminal fragments (APP-CTFs) were evaluated relative to total amyloid precursor protein (APP) levels in the cerebellum for wild type, untreated wild type NPC1^−/− mice, and AL-treated wild type NPC1^−/− mice. Levels of microtubule-associated protein 1A/1B-light chain 3-phosphatidylethanolamine conjugate (LC3-II) were also evaluated relative to levels of tubulin loading control for wild type, untreated wild type NPC1^−/− mice, and AL-treated wild type NPC1^−/− mice.

[10] = test system: Npc1−/− mice; assay: Weight data; assay type: in vivo, mouse; details: 0.1 g/kg from weaning
From the text: (§2) Separate groups of Npc1^−/− and Npc1^+/+ mice were left untreated, as controls. Animals were weighed twice a week. Weights were averaged (mean) across all mice in each group and compared.

[11] = test system: wild-type (Npc1+/+) mice; assay: Weight data; assay type: in vivo, mouse; details: 0.1 g/kg from weaning
From the text: as §2

[12] = test system: patients with Tay-Sachs disease; assay: Case studies, Tay-Sachs disease (SARA, SCAFI, MoCA); assay type: in vivo, human
From the text: For example, to evaluate overall neurological status, mDRS, a four-domain scale (ambulation, manipulation, language and swallowing), may be applied. Cerebellar function may be evaluated using SARA, an eight-item clinical rating scale (gait, stance, sitting, speech, fine motor function and taxis; range 0-40, where 0 is the best neurological status and 40 the worst), and SCAFI, comprising the 8-m-Walking-Time (8MW; performed by having patients walking twice as quickly as possible from one line to another excluding turning), 9-Hole-Peg-Test (9HPT) and the number of “PATA” repetitions over 10 s. Subjective impairment and quality of life may be evaluated using the EQ-5D-5L questionnaire and VAS. To assess ocular motor function, 3-dimensional videooculography (EyeSeeCam) may be used to measure the peak velocity of saccades, gain of smooth pursuit, peak slow phase velocity of gaze-evoked nystagmus (gaze-holding function), peak slow phase velocity of optokinetic nystagmus, and gain of horizontal vestibulo-ocular reflex. To evaluate the cognitive state, WAIS-R or WISC-IV, and MoCA, assessing different cognitive domains, including attention and concentration, executive functions, memory, language, visuoconstructional skills, conceptual thinking, calculations, and orientation with a maximum of 30 points and a cut-off score of 26, may be used. The skilled person will know how to perform these and other such tests.
The day following this examination, the patient was started on therapy with acetyl-leucine, at a dose of 3 g per day for the first week, followed by a dose of 5 g per day for the second week onwards.
The day of the examination, the patient was started on therapy with acetyl-leucine at a dose of 3 g per day for the first week, followed by a dose of 5 g per day for the second week onwards.
The patient was started on therapy with acetyl-leucine at a dose of 1.5 g per day for the first week, followed by a dose of 3 g per day for the second week onwards.

CC(=O)NC(CC(C)C)C(=O)O (racemic) [acetyl-DL-leucine]
Tolerability ([1]; 3 g/day one week then 5 g/day): well tolerated
Dizziness, imbalance, gait (feedback by spouse) ([1]; 22 days after beginning treatment): significant reduction of dizziness and imbalance, and significant improvement of gait
Motor function properties vs untreated littermates [2]: significantly improved motor function
Motor function properties vs untreated littermates [3]: no significant difference in motor function properties
Patient report on treatment ([4]; after four weeks, 3 g/day then 5 g/day): increased fatigue and a deterioration of balance and speech
Patient report on decreased dose ([4]; reduced to 3 g/day): did not report improvement of symptomatology with the decreased dose
Subjective measurements ([5]; 1 month on medication): more energy, was more agile and interactive
SARA ([5]; 1 month on medication, baseline 6.5/40): 2/40
Mean timed 8-meter-walking test ([5]; 1 month on medication, baseline 6.5 sec): 4.4 s
Stance up-and-go test ([5]; 1 month on medication, baseline 25.4 sec): 21.2 s
Maximal distance to walk ([5]; 1 month, 2 g/1.5 g/1.5 g per day, baseline 1 km): 1.5 km
Side effects ([5]; 2 g/1.5 g/1.5 g per day dosage regimen): Sleepiness
Frequency of falls ([5]; lower dosage 1 g/1 g/1 g for over 4 months): 0-1 /month
Falls ([5]; therapy period of 1 month): did not record any falls
LysoTracker fluorescence vs untreated disease fibroblasts [6]: statistically significant reduction in LysoTracker fluorescence toward control level
LysoTracker fluorescence vs untreated disease fibroblasts [7]: statistically significant reduction in LysoTracker fluorescence toward control level
LysoTracker fluorescence vs untreated disease fibroblasts [8]: trend in reducing LysoTracker fluorescence toward control level
APP-CTF levels relative to total APP, cerebellum [9]: lowering of APP-CTFs
Delay of weight loss symptoms compared to the untreated group [10]: two
Effect on weight gain [11]: no significant effect
Overall symptoms ([12]; Tay-Sachs Patient 1): improvement in symptoms
Clinical re-examination ([12]; Tay-Sachs Patient 1, after four months): stable condition with slightly improved cognitive function but had deterioration of stance, gait and fine motor function
Clinical re-examination ([12]; Tay-Sachs Patient 1, after one month, 3 g then 5 g per day): improved fine motor skills and reduced hand tremor
Clinical re-examination ([12]; Tay-Sachs Patient 2, after one month, 3 g then 5 g per day): increased enunciation, improved postural stability, and enhanced cognitive function
Clinical re-examination ([12]; Tay-Sachs Patient 3, after one month, 1.5 g then 3 g per day): increased fine motor skills
